Test results reported in the supplement of paper PMC10307832.

How the values were obtained:
Assay in all cases: relative viability (nuclei count vs DMSO), 5 days (fraction); higher = more cells survive
[1] = test system: ChaGo-K-1
Method in brief: (§1)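 A single step with final 0.05% Triton X-100, 1% formaldehyde and 1 ug/ml Hoechst fixed the cells and stained nuclei 5 days after treatment. Lung cancer cell lines in 1536-well plates had been treated by pin tool the day after seeding with one drug alone or a fixed anchor-drug dose plus five library-drug doses (not always all listed) in √10 steps, and nuclei were counted on 4× images. Relative viability is the ratio of nuclei in treated wells to nuclei in vehicle wells, taken as the median of duplicate plates.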

[2] = test system: EMC-BAC-2
Method in brief: as §1

[3] = test system: EPLC-272H
Method in brief: as §1

[4] = test system: H3255
Method in brief: as §1

[5] = test system: HCC-44
Method in brief: as §1

[6] = test system: HCC-827
Method in brief: as §1

[7] = test system: LCLC-103H
Method in brief: as §1

[8] = test system: LCLC-97TM1
Method in brief: as §1

[9] = test system: NCI-H1355
Method in brief: as §1

[10] = test system: NCI-H1395
Method in brief: as §1

[11] = test system: NCI-H1651
Method in brief: as §1

[12] = test system: NCI-H1793
Method in brief: as §1

[13] = test system: NCI-H1944
Method in brief: as §1

[14] = test system: NCI-H2023
Method in brief: as §1

[15] = test system: NCI-H2085
Method in brief: as §1

[16] = test system: NCI-H2087
Method in brief: as §1

[17] = test system: NCI-H2405
Method in brief: as §1

[18] = test system: NCI-H322M
Method in brief: as §1

[19] = test system: NCI-H520
Method in brief: as §1

[20] = test system: NCI-H650
Method in brief: as §1

[21] = test system: SK-MES-1
Method in brief: as §1

[22] = test system: UMC-11
Method in brief: as §1

CC1(C)CCC(c2ccc(Cl)cc2)=C(CN2CCN(c3ccc(C(=O)NS(=O)(=O)c4ccc(N[C@H](CCN5CCOCC5)CSc5ccccc5)c(S(=O)(=O)C(F)(F)F)c4)cc3)CC2)C1 [Navitoclax] + O=C(CCCCCCC(=O)Nc1ccccc1)NO [Vorinostat] (partner 1 µM)
relative viability ([1]; first compound 0.005 µM): 0.789
relative viability ([1]; first compound 0.01581 µM): 0.786
relative viability ([1]; first compound 0.05 µM): 0.496
relative viability ([1]; first compound 0.1581 µM): 0.759
relative viability ([1]; first compound 0.5 µM): 0.781
relative viability ([2]; first compound 0.005 µM): 0.413
relative viability ([2]; first compound 0.01581 µM): 0.507
relative viability ([2]; first compound 0.05 µM): 0.548
relative viability ([2]; first compound 0.1581 µM): 0.422
relative viability ([2]; first compound 0.5 µM): 0.418
relative viability ([3]; first compound 0.005 µM): 0.521
relative viability ([3]; first compound 0.01581 µM): 0.561
relative viability ([3]; first compound 0.05 µM): 0.292
relative viability ([3]; first compound 0.1581 µM): 0.385
relative viability ([3]; first compound 0.5 µM): 0.282
relative viability ([4]; first compound 0.005 µM): 0.787
relative viability ([4]; first compound 0.01581 µM): 0.958
relative viability ([4]; first compound 0.05 µM): 0.874
relative viability ([4]; first compound 0.1581 µM): 0.794
relative viability ([4]; first compound 0.5 µM): 0.586
relative viability ([5]; first compound 0.005 µM): 1.13
relative viability ([5]; first compound 0.01581 µM): 1.07
relative viability ([5]; first compound 0.05 µM): 0.988
relative viability ([5]; first compound 0.1581 µM): 1.12
relative viability ([5]; first compound 0.5 µM): 1.09
relative viability ([6]; first compound 0.005 µM): 0.951
relative viability ([6]; first compound 0.01581 µM): 0.902
relative viability ([6]; first compound 0.05 µM): 0.619
relative viability ([6]; first compound 0.1581 µM): 0.77
relative viability ([6]; first compound 0.5 µM): 0.907
relative viability ([7]; first compound 0.005 µM): 0.73
relative viability ([7]; first compound 0.01581 µM): 0.928
relative viability ([7]; first compound 0.05 µM): 0.96
relative viability ([7]; first compound 0.1581 µM): 0.807
relative viability ([7]; first compound 0.5 µM): 0.665
relative viability ([8]; first compound 0.005 µM): 0.857
relative viability ([8]; first compound 0.01581 µM): 0.745
relative viability ([8]; first compound 0.05 µM): 0.659
relative viability ([8]; first compound 0.1581 µM): 0.717
relative viability ([8]; first compound 0.5 µM): 0.979
relative viability ([9]; first compound 0.005 µM): 0.63
relative viability ([9]; first compound 0.01581 µM): 0.685
relative viability ([9]; first compound 0.05 µM): 0.618
relative viability ([9]; first compound 0.1581 µM): 0.637
relative viability ([9]; first compound 0.5 µM): 0.665
relative viability ([10]; first compound 0.005 µM): 0.653
relative viability ([10]; first compound 0.01581 µM): 0.862
relative viability ([10]; first compound 0.05 µM): 0.802
relative viability ([10]; first compound 0.1581 µM): 0.682
relative viability ([10]; first compound 0.5 µM): 0.659
relative viability ([11]; first compound 0.005 µM): 0.582
relative viability ([11]; first compound 0.01581 µM): 0.575
relative viability ([11]; first compound 0.05 µM): 0.466
relative viability ([11]; first compound 0.1581 µM): 0.573
relative viability ([11]; first compound 0.5 µM): 0.598
relative viability ([12]; first compound 0.005 µM): 0.744
relative viability ([12]; first compound 0.01581 µM): 0.873
relative viability ([12]; first compound 0.1581 µM): 0.667
relative viability ([12]; first compound 0.5 µM): 0.444
relative viability ([13]; first compound 0.005 µM): 0.54
relative viability ([13]; first compound 0.01581 µM): 0.603
relative viability ([13]; first compound 0.1581 µM): 0.457
relative viability ([13]; first compound 0.5 µM): 0.578
relative viability ([14]; first compound 0.005 µM): 0.744
relative viability ([14]; first compound 0.01581 µM): 0.76
relative viability ([14]; first compound 0.05 µM): 0.659
relative viability ([14]; first compound 0.1581 µM): 0.557
relative viability ([14]; first compound 0.5 µM): 0.473
relative viability ([15]; first compound 0.005 µM): 0.817
relative viability ([15]; first compound 0.01581 µM): 0.998
relative viability ([15]; first compound 0.05 µM): 0.568
relative viability ([15]; first compound 0.1581 µM): 0.844
relative viability ([15]; first compound 0.5 µM): 0.834
relative viability ([16]; first compound 0.005 µM): 0.675
relative viability ([16]; first compound 0.01581 µM): 0.467
relative viability ([16]; first compound 0.1581 µM): 0.853
relative viability ([16]; first compound 0.5 µM): 0.848
relative viability ([17]; first compound 0.005 µM): 0.979
relative viability ([17]; first compound 0.01581 µM): 1.09
relative viability ([17]; first compound 0.05 µM): 1.11
relative viability ([17]; first compound 0.1581 µM): 1
relative viability ([17]; first compound 0.5 µM): 0.811
relative viability ([18]; first compound 0.005 µM): 1.02
relative viability ([18]; first compound 0.01581 µM): 1.06
relative viability ([18]; first compound 0.05 µM): 0.908
relative viability ([18]; first compound 0.1581 µM): 0.843
relative viability ([18]; first compound 0.5 µM): 0.999
relative viability ([19]; first compound 0.005 µM): 0.743
relative viability ([19]; first compound 0.01581 µM): 0.817
relative viability ([19]; first compound 0.05 µM): 0.704
relative viability ([19]; first compound 0.1581 µM): 0.691
relative viability ([19]; first compound 0.5 µM): 0.749
relative viability ([20]; first compound 0.005 µM): 0.503
relative viability ([20]; first compound 0.01581 µM): 0.448
relative viability ([20]; first compound 0.05 µM): 0.431
relative viability ([20]; first compound 0.1581 µM): 0.463
relative viability ([20]; first compound 0.5 µM): 0.453
relative viability ([21]; first compound 0.005 µM): 1.06
relative viability ([21]; first compound 0.01581 µM): 1.42
relative viability ([21]; first compound 0.05 µM): 1.15
relative viability ([21]; first compound 0.1581 µM): 1.1
relative viability ([21]; first compound 0.5 µM): 1.17
relative viability ([22]; first compound 0.005 µM): 0.43
relative viability ([22]; first compound 0.01581 µM): 0.371
relative viability ([22]; first compound 0.05 µM): 0.39
relative viability ([22]; first compound 0.1581 µM): 0.312
relative viability ([22]; first compound 0.5 µM): 0.148
